The source of these data is publication PMC6104039 (Nature Communications, 2018).

Entries after “also recorded” stand apart in the source; their conditions may differ.

Broadly, the IC50 is the point on the concentration scale where inhibition reaches its midpoint. One may read the half-life as the time in which the quantity being followed falls by half. Higher therefore signals slow loss.

The target of data set [1] is murine CerS2 (Mus musculus, UniProt Q924Z4). Kind of data set: Ceramide synthase assay, NBD-dihydrosphingosine, C24:1-CoA; COS cells expressing murine CerS2. It is filed as biochemical. The note with it: inhibitor range 10 nM–100 μM; read-out: IC50 mCerS2. The protocol: Ceramide synthase assays were carried out using an HPLC-based assay with a fluorescent NBD-dihydrosphingosine substrate. All cell lines used for these assays were originally sourced from ATCC. […] Cells were sonicated in a Diagenode Bioruptor sonicating bath for 5 min, after which cell extracts were cleared by centrifugation at 800 × g for 10 min. Protein concentration in the supernatant was assayed using the bicinchoninic acid (BCA) assay, and the supernatant stored at −80 °C. COS cells were infected with lentiviral constructs expressing murine CerS1, 2, or 5, then homogenised as described above.
Sequence of murine CerS2 (Q924Z4 whole entry): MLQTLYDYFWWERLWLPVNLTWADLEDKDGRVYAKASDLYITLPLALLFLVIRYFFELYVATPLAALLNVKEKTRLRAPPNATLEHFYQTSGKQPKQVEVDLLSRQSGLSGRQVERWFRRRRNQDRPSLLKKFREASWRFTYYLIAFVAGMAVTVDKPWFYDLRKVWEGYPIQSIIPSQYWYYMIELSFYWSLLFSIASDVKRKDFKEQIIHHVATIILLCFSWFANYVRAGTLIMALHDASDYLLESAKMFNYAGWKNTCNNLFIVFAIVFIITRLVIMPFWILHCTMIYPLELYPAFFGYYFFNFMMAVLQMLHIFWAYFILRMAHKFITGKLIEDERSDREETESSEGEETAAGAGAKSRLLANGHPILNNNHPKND
The reaction buffer consisted of 20 mM Hepes pH 7.4, 25 mM KCl, 2 mM MgCl2, 0.5 mM dithiothreitol, 0.1% fatty acid free BSA, 10 μM NBD-dihydrosphingosine and 50 μM fatty acid free BSA. C18:0-CoA was used as the fatty acyl substrate for CerS1 and CerS4; C24:1-CoA for CerS2; and C16:0-CoA for CerS5 and CerS6. All reactions were run in triplicate. […] The reaction mixture was transferred to a glass HPLC vial with 300 μL fused glass insert (Thermo Fisher Scientific) and NBD-dihydroceramide reaction products were analysed on a Thermo Scientific Surveyor HPLC connected to a Shimadzu RF-10AXL fluorescent detector (set to gain of 3). […]

Data set [2] in a line: Detection of P053-phosphate in plasma of dosed mice, LC-MS/MS. It counts as in vivo. The note with it: 5 mg/kg/day for 6 weeks. As to the method:
(§1) LC-MS/MS was performed on a TSQ Quantum Access triple quadrupole mass spectrometer in positive ion mode, coupled to an Accela UPLC system (Thermo Scientific). Extracts (20 μL) were separated on a 2 × 100 mm Eclipse XDB-C8 column with 1.8 μm particle size (Agilent Technologies), using a 7.5 min binary HPLC gradient: 0 min, 70% B ([…]); 1.5 min, 70% B; 3.5 min, 95% B; 4 min, 95% B; 4.5 min, 70% B; 7.5 min 70% B. Mobile phase A: 2 mM ammonium formate/1% formic acid in water; mobile phase B: 1 mM ammonium formate/1% formic acid in methanol. The flow rate was 0.4 mL min^−1, increasing to 0.5 mL min^−1 from 5–7 min, and column oven 30 °C. […] Visualisation and quantification of peaks was performed using Thermo Fisher’s XCalibur software v2.2.
Supplementary Figure 8. P053 is not phosphorylated in situ or in vivo. (a-b) HEK293 cells […]
LC-MS/MS analysis. Chromatograms for (a) FTY720 and its phosphate, and (b) P053 and its putative phosphate are shown. […]
mg/kg/day for 6 weeks, corresponding to a plasma concentration of ~300 nM. No peak is […]
(1 picture or pasted object on this page, not shown here)

For data set [3], the system named is permeabilised extensor digitorum longus muscle fibres. The experiment in a line: Respiratory complex activities in permeabilized extensor digitorum longus muscle fibres. It is filed as in vivo, mice. The conditions noted are these: three weeks, 5 mg/kg. As to the method:
Permeabilized extensor digitorum longus (EDL) fibres were prepared and mitochondrial function analyzed according to published protocols with some modifications[71],[72]. Briefly, EDL muscles were dissected tendon-to-tendon into ice-cold isolation buffer A (10 mM Ca-EGTA buffer, 20 mM imidazole, 20 mM taurine, 49 mM K-MES, 3 mM K2HPO4, 9.5 mM MgCl2, 5.7 mM ATP, 15 mM phosphocreatine, 1 μM leupeptin, pH 7.1) and fibres were prepared immediately. Fibre bundles (~3 mg wet weight) were treated with saponin (50 μg/mL) for 20 min at 4 °C and subsequently washed in cold respiration medium B (0.5 mM EGTA, 3 mM MgCl2.6H2O, 20 mM taurine, 10 mM KH2PO4, 20 mM HEPES, 0.1% BSA, 15 mM potassium-lactobionate, 110 mM mannitol, 0.3 mM dithiothreitol, pH 7.1). […] Fibres were recovered after polarography and results were expressed as nmoles of O2/min/mg of tissue. Mitochondrial membrane integrity was verified by cytochrome c release test[71],[72].

Data set [4] can be described thus: Plasma P053 concentration after oral dosing, LC-MS/MS. It is filed as in vivo, mice. As to the method: Plasma samples (20 μL) were extracted with 200 μL methanol containing 20 pmoles AAL(S)[27] as the internal standard. The mixtures were vortexed, then sonicated in ice water using a Bioruptor (Diagenode) for 2 min at 30 s intervals. Extracts were centrifuged at 1400 rpm for 20 min, 4 °C, to clear debris. Supernatants were transferred to 5 mL glass tubes. The remaining insoluble material was re-extracted with 1 mL 80% methanol as above, and the supernatant combined with the first extract. The extracts were evaporated under vacuum (Savant SC210 SpeedVac, Thermo Scientific). Dried extracts were reconstituted in 200 μL of 80% methanol/0.2% formic acid and stored at −20 °C. On the day of analysis, the extracts were vortexed thoroughly and centrifuged at 300 × g for 20 min before transferring 100 μL of the supernatant to glass HPLC vials.
as §1

For `CCCCCCCCc1ccc(CCC(N)(CO)CO)cc1` [FTY720, reference compound], the half-inhibitory concentration (IC50) in data set [1] was 10.6 ± 0.13 µM.

With `C[C@@](N)(CO)CCc1ccc(OCc2ccc(Cl)c(Cl)c2)cc1` [P053, (S)-2-amino-4-(4-(3,4-dichlorobenzyloxy)phenyl)-2-methylbutan-1-ol], the “phosphate of the compound in plasma of mice” value in data set [2] is reported as “only background signal is detected; also recorded: not detected”. Besides, in data set [1], the IC50 was 18.5 ± 0.12 µM. Moreover, in data set [3], the “complex II activity” value was “trend for an increase”; the “respiratory activity with complex I and IV substrates” value is “significant increase”. This compound returned a concentration at 6 weeks in data set [4] (C57BL6/J, mouse, plasma, oral, 5 mg/kg/day for 6 weeks) of about 300 nM. Further, the half-life in data set [4] (C57BL6/J, mouse, plasma, single 5 mg/kg dose by oral gavage) is 28 h. Besides, in data set [4] (C57BL6/J, mouse, plasma, single 5 mg/kg dose by oral gavage, read-out: time of maximal plasma concentration), the Tmax worked out at 4 h. This compound also registered a maximal plasma concentration in data set [4] (single 5 mg/kg dose by oral gavage) of 20 nM.
